Tests used:
[1] = target: recombinant human estradiol receptors (rhER) beta 1 (β1) (Homo sapiens, UniProt Q92731); assay: competitive radioligand binding assay, rhER beta 1; settings: at as high as […]10^−4 molar concentration
[2] = target: T1, recombinant human estradiol receptors (rhER) alpha (α) (Homo sapiens, UniProt P03372); assay: competitive radioligand binding assay, rhER alpha; settings: at as high as […]10^−4 molar concentration
T1 sequence (P03372 1-595): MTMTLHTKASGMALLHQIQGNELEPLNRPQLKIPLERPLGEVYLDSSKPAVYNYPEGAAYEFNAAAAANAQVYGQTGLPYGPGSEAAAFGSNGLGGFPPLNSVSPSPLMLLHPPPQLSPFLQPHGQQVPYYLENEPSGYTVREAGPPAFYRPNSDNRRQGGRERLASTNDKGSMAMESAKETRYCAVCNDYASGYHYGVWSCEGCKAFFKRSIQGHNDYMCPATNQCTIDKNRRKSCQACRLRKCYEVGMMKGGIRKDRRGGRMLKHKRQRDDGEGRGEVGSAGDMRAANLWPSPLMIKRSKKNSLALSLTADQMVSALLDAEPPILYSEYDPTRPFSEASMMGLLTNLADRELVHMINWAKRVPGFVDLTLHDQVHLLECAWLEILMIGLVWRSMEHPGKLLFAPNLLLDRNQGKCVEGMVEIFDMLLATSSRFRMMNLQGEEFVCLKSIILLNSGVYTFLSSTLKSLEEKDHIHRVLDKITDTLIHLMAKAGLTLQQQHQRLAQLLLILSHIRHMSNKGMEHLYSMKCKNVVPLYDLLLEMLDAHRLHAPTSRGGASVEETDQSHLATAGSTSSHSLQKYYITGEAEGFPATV

Compound | estradiol displacement at the beta estradiol receptor [1] | estradiol displacement at the alpha estradiol receptor [2]
O=C1c2ccccc2C(c2ccc(O)cc2)(c2ccc(O)cc2)N1c1ccccc1 [Example 4, N-Phenyl Phenolphthalein Bisphenol] | no detectible estradiol displacement | no detectible estradiol displacement
Oc1cccc(O)c1 [Example 5, Resorcinol] | no detectible estradiol displacement | no detectible estradiol displacement
Biphenol [Example 7] | – | no displacement
Cc1cc(O)ccc1O [Example 9, Methyl Hydroquinone] | no alpha or beta estradiol displacement | –
CC(C)(C)c1cc(O)c(C(C)(C)C)cc1O [Example 8, Di t-Butyl Hydroquinone] | no displacement | no displacement

— patent US20130052381A1, “POLYEPOXIDES AND EPOXY RESINS AND METHODS FOR THE MANUFACTURE AND USE THEREOF” (priority 2011, published 2013)
